# Tested on: skin
# Test: 96 hour patch test of irritancy
# Details: 0.3% w/v in sterile water
# Method: A 96 hour patch test was carried out to assess the irritancy or otherwise of Myrica gale oil when applied to the skin. For comparison, a solution of sodium dodecyl sulphate and white soft paraffin were also investigated.
structure (smiles),measurement,value
"CCCCCCCCCCCCOS(=O)(=O)[O-].[Na+] [Sodium dodecyl sulphate (SDS), Sodium dodecyl sulphate]",Mean Dryness (D),0.72
same,Mean Erythema (E),4.54
same,Mean Irritation (E + D),5.26

# From US20080069898A1, “Topical Compositions Comprising Myrica Gale Oil” (priority 2004, published 2008)
